# System: hind leg scratching behaviour induced by 5-methoxytryptamine hydrochloride
# Assay: Inhibition of hind leg scratching behaviour induced in rats by a pruritogenic agent
# Format: in vivo, Male Wistar rats
# Conditions: rat, pruritogen 5-methoxytryptamine hydrochloride 4 mg/3 mL/kg s.c.; test compound s.c. in aqueous micelle formulation; scratching score over 25 minutes
# Protocol: The compounds of the invention are evaluated for their activity as antipruritic agents by measuring their ability to inhibit the hind leg scratching behaviour induced in rats by the administration of a known pruritogenic agent. These studies are based on the procedure described by Berendsen and Broekkamp in the European Journal of Pharmacology, 1991, 194, 201. The test is performed as follows: • Male Wistar rats (approximately 150 g body weight) are challenged with a pruritogen by subcutaneous injection of 5-methoxytryptamine hydrochloride (4 mg/3 mL/kg) dissolved in physiological saline into the scruff of the neck. At this dose a constant and quantifiable hindleg scratching response lasting up to 90 minutes is obtained. • The test compound is administered to the test animals by subcutaneous injection in an aqueous micelle formulation. The test compound is prepared in the following manner. […] The compounds can be administered pre- or post-challenge or may be administered at the same time as the pruritogenic challenge. • After the pruritogen challenge has been administered, hindleg scratching is scored for each animal by recording the presence or absence of scratching during each 30 second interval as 1 or 0 scored respectively. […]
smiles,measurement,value
"CCCCCCN1CC[C@@](C)(c2cccc(OC(=O)NC)c2)[C@H](C)C1 (racemic) [Example 2, (±)-3-(1-Hexyl-trans-3,4-dimethyl-4-piperidinyl)phenyl methylcarbamate]",anti-pruritic activity,found to display anti-pruritic activity

# From patent US7012083B2, “Compounds useful in therapy” (Pfizer Inc., priority 1999, dated 2006)
